Patent US20040034050A1, “Homo-camptothecin derivatives” (priority 2002, published 2004)

These molecules were tested on VM46 cells (assay: Cell colony formation assay). Settings: drug concentration producing 50% inhibition of colony formation, incubated with drugs for 72 hours at 37° C., colonies counted after 8 days.
Type: cell-based
Description: This example provides directions for growing cells and testing compounds of the invention for their effect on the growth of the cells. All cells are purchased from DCTDC Tumor Repository, NCI, NIH.
Cell Colony Formation Assay
Five hundred cells (VM46) were plated in 60 mm Petri dishes containing 2.7 ml of medium (modified McCoy's 5a medium containing 10% bovine calf serum and 100 units/ml penicillin and […] streptomycin). The cells were incubated in a CO2 incubator at 37° C. for 5 hours for attachment to the bottom of Petri dishes. Drugs were made fresh in medium at ten times the final concentration, and then 0.3 ml of this stock solution was added to the 2.7 ml of medium in the dish. The cells were then incubated with drugs for 72 hours at 37° C. At the end of the incubation the drug-containing media were decanted, the dishes were rinsed with 4 ml of Hank's Balance Salt Solution (HBSS), 5 ml of fresh medium is added, and the dishes are returned to the incubator for colony formation. The cell colonies were counted using colony counter after incubation for 8 days for VM46 cells.
Values of ID50 (the drug concentration producing 50% inhibition of colony formation) may be determined for each tested compound.
For `CC[C@@]1(O)CC(=O)OCc2c1cc1n(c2=O)Cc2cc3ccccc3nc2-1` (racemic) [homo-campothecin, homo-camptothecin], the “Values of ID 50” value was 4 nM.
`CCC1(OC(=O)COc2cccc(Cl)c2Cl)CC(=O)OCc2c1cc1n(c2=O)Cc2cc3ccccc3nc2-1` (centres unmarked) [Example 1158, Homocamptothecin-20-O Ester of 2,3-Dichlorophenoxy Acetic Acid] was tested, and the “Values of ID 50” value was 1.5 nM.
With `CCC1(OC(=O)COc2ccc(F)cc2)CC(=O)OCc2c1cc1n(c2=O)Cc2cc3ccccc3nc2-1` (centres unmarked) [Example 1160, Homo-camptothecin-20-O-ester of 4-Fluorophenoxyacetic Acid] the “Values of ID 50” value was 1.5 nM.
For `CCC1(OC(=O)COc2ccc(OC(F)(F)F)cc2)CC(=O)OCc2c1cc1n(c2=O)Cc2cc3ccccc3nc2-1` (centres unmarked) [Example 1164, Homo-camptothecin-20-O-ester of 4-Trifluoromethoxyphenoxyacetic Acid], the “Values of ID 50” value was 3.5 nM.
`CCC1(OC(=O)COc2ccccc2Cl)CC(=O)OCc2c1cc1n(c2=O)Cc2cc3ccccc3nc2-1` (centres unmarked) [Example 021229, Homocamptothecin-20-O Ester of 2-Chlorophenoxy Acetic Acid] was tested, and the “Values of ID 50” value was 2 nM.
